Data from US10118935B2, “Melampomagnolide B dimers” (priority 2014, dated 2018).
Like-named read-outs stand apart in the source and are kept apart here.

Assays:
M9ENL AML cell lines [1] = experiment: cells; conditions: Table 5; cell line not given
M9ENL AML cell lines [2] = conditions: for EC50: Table 5, cell line not given; for CC50: read-out: LC50, M9ENL AML cell lines, after 24 hours of drug exposure; for potency relative to parthenolide and MMB: M9 ENL cell lines
AML cell line AML 123009 = conditions: for cytotoxicity relative to PTL: AML 123009, FIG. 6; for EC50: read-out: Viability EC50, AML cell line 123009

Question: With `CN(C)CC1C(=O)O[C@H]2[C@H]1CC/C(COC(=O)NCCCCCCCCNC(=O)OC/C1=C/CC[C@@]3(C)O[C@H]3[C@H]3OC(=O)C(CN(C)C)[C@@H]3CC1)=C\CC[C@@]1(C)O[C@@H]21` (single isomer, unassigned) [JVM 3-62A] as the compound, how does the EC50 (M9ENL AML cell lines [1]) read?
Answer: 1300 nM

Question: How did the EC50 (M9ENL AML cell lines [2]) turn out when `CN(C)CC1C(=O)O[C@H]2[C@H]1CC/C(COC(=O)NCCCCCCCCNC(=O)OC/C1=C/CC[C@@]3(C)O[C@H]3[C@H]3OC(=O)C(CN(C)C)[C@@H]3CC1)=C\CC[C@@]1(C)O[C@@H]21` (single isomer, unassigned) [JVM 3-62B] was run?
Answer: 1200 nM

Question: With `C=C1C(=O)O[C@H]2[C@H]1CC/C(COC(=O)OCCC(CCOC(=O)OC/C1=C/CC[C@@]3(C)O[C@H]3[C@H]3OC(=O)C(=C)[C@@H]3CC1)O[Si](C)(C)C(C)(C)C)=C\CC[C@@]1(C)O[C@@H]21` (stereo partly drawn) [BS-3-14] as the compound, how does the EC50 (M9ENL AML cell lines [1]) read?
Answer: 1110 nM

Question: For `C=C1C(=O)O[C@H]2[C@H]1CC/C(COC(=O)NCCC(O)CCNC(=O)OC/C1=C/CC[C@@]3(C)O[C@H]3[C@H]3OC(=O)C(=C)[C@@H]3CC1)=C\CC[C@@]1(C)O[C@@H]21` (stereo partly drawn) [BS-3-24], which EC50 (M9ENL AML cell lines [1]) is on record?
Answer: 9030 nM

Question: With `C=C1C(=O)O[C@H]2[C@H]1CC/C(COC(=O)OCCC(CCOC(=O)OC/C1=C/CC[C@@]3(C)O[C@H]3[C@H]3OC(=O)C(=C)[C@@H]3CC1)OCCCCCCCCCCn1cc(CNC(=O)CCCCC3SCC4NC(=O)NC43)nn1)=C\CC[C@@]1(C)O[C@@H]21` (stereo partly drawn) [BS-4-38a] as the compound, how does the EC50 (M9ENL AML cell lines [1]) read?
Answer: 20000 nM

Question: Which EC50 (M9ENL AML cell lines [1]) does the source give for `C=C1C(=O)O[C@H]2[C@H]1CC/C(COC(=O)OCCC(CCO)OCCCCCCCCCCn1cc(CNC(=O)CCCCC3SCC4NC(=O)NC43)nn1)=C\CC[C@@]1(C)O[C@@H]21` (stereo partly drawn) [BS-4-38b] here?
Answer: 30000 nM

Question: `CN(C)CC1C(=O)O[C@H]2[C@H]1CC/C(COC(=O)OC/C1=C/CC[C@@]3(C)O[C@H]3[C@H]3OC(=O)C(CN(C)C)[C@@H]3CC1)=C\CC[C@@]1(C)O[C@@H]21` (stereo partly drawn) [JVM 3-55 B] was tested. Which EC50 (M9ENL AML cell lines [1]) did it give?
Answer: 5100 nM

Question: `C=C1C(=O)OC2C1CCC(COC(=O)NCCCNC(=O)OCC1=CCCC3(C)OC3C3OC(=O)C(=C)C3CC1)=CCCC1(C)OC21` [JVM 3-55, bis(((1aR,7aS,10aS,10bS,E)-1a-Methyl-8-methylene-9-oxo-1a,2,3,6,7,7a,8,9,10a,10b-decahydrooxireno[2′,3′:9,10]cyclodeca[1,2-b]furan-5-yl)methyl)propane-1,3-diyldicarbamate] was tested. Which CC50 (M9ENL AML cell lines [2]) did it give?
Answer: 560 nM

Question: `C=C1C(=O)OC2C1CCC(COC(=O)NCCCCCCCNC(=O)OCC1=CCCC3(C)OC3C3OC(=O)C(=C)C3CC1)=CCCC1(C)OC21` [JVM 3-58, bis(((1aR,7aS, 10aS, 10bS, E)-1a-Methyl-8-methylene-9-oxo-1a,2,3,6,7,7a,8,9,10a,10b-decahydrooxireno[2′,3′:9,10]cyclodeca[1,2-b]furan-5-yl)methyl)heptane-1,7-diyldicarbamate] was tested. Which CC50 (M9ENL AML cell lines [2]) did it give?
Answer: 1200 nM

Question: `C=C1C(=O)OC2C1CCC(COC(=O)NCCCCCCCCCNC(=O)OCC1=CCCC3(C)OC3C3OC(=O)C(=C)C3CC1)=CCCC1(C)OC21` [JVM 3-61, bis(((1aR,7aS, 10aS, 10bS, E)-1a-Methyl-8-methylene-9-oxo-1a,2,3,6,7,7a,8,9,10a, 1b-decahydrooxireno[2′,3′:9,10]cyclodeca[1,2-b]furan-5-yl)methyl)nonane-1,9-diyldicarbamate] was tested. Which CC50 (M9ENL AML cell lines [2]) did it give?
Answer: 1800 nM

Question: `C=C1C(=O)O[C@H]2[C@H]1CC/C(COC(=O)NCCCCCCCCNCC1C(=O)O[C@H]3[C@H]1CC/C(COC(=O)NCCCCCCCCNC(=O)OC/C1=C/CC[C@@]4(C)O[C@H]4[C@H]4OC(=O)[C@@H](CNCCCCCCCCNC(=O)OC/C5=C/CC[C@@]6(C)O[C@H]6[C@H]6OC(=O)C(=C)[C@@H]6CC5)[C@@H]4CC1)=C\CC[C@@]1(C)O[C@@H]31)=C\CC[C@@]1(C)O[C@@H]21` (stereo partly drawn) [JVM 3-62-1] was tested. Which EC50 (M9ENL AML cell lines [1]) did it give?
Answer: 1700 nM

Question: With `C[C@@]12CC/C=C3\CC[C@@H]4[C@H](OC(=O)[C@H]4CNCCCCCCCCNC[C@@H]4C(=O)O[C@H]5[C@H]4CC/C(=C\CC[C@@]4(C)O[C@@H]54)COC(=O)NCCCCCCCCNC(=O)OC3)[C@@H]1O2` [JVM 3-62-2] as the compound, how does the EC50 (M9ENL AML cell lines [1]) read?
Answer: 38000 nM

Question: How did the CC50 (M9ENL AML cell lines [2]) turn out when `C=C1C(=O)OC2C1CCC(COC(=O)NCCCCCCNC(=O)OCC1=CCCC3(C)OC3C3OC(=O)C(=C)C3CC1)=CCCC1(C)OC21` [JVM 3-64, bis(((1aR,7aS,10aS,10bS,E)-1a-Methyl-8-methylene-9-oxo-1a,2,3,6,7,7a,8,9,10a,10b-decahydrooxireno[2′,3′:9,10]cyclodeca[1,2-b]furan-5-yl)methyl)hexane-1,6-diyldicarbamate] was run?
Answer: 340 nM

Question: How did the CC50 (M9ENL AML cell lines [2]) turn out when `C=C1C(=O)O[C@H]2[C@H]1CC/C(COC(=O)NCCCCCCCCCCNC(=O)OC/C1=C/CC[C@@]3(C)O[C@H]3[C@H]3OC(=O)C(=C)[C@@H]3CC1)=C\CC[C@@]1(C)O[C@@H]21` [JVM 3-65, bis(((1aR,7aS,10aS, 10bS,E)-1a-Methyl-8-methylene-9-oxo-1a,2,3,6,7,7a,8,9,10a,10b-decahydrooxireno[2,3′:9,10]cyclodeca[1,2-b]furan-5-yl)methyl)decane-1,10-diyldicarbamate] was run?
Answer: 1600 nM

Question: Which “potency relative to parthenolide and MMB” value (M9ENL AML cell lines [2]) does the source give for `C=C1C(=O)OC2C1CCC(C(=O)NCCCCCCCCNC(=O)C1=CCCC3(C)OC3C3OC(=O)C(=C)C3CC1)=CCCC1(C)OC21` [JVM 3-78, (1aR,1a′R,4E,4′E,7aS,7a′S, 10aS, 10bS, 10a′S, 10b′S)—N,N′-(octane-1,8-diyl)bis(1a-methyl-8-methylene-9-oxo-1a,2,3,6,7,7a,8,9,10a,10b-decahydrooxireno[2′,3′:9,10]cyclodeca[1,2-b]furan-5-carboxamide)] here?
Answer: more potency than parthenolide and MMB

Question: How did the “potency relative to parthenolide and MMB” value (M9ENL AML cell lines [2]) turn out when `C=C1C(=O)OC2C1CCC(C(=O)NCCCCCCCCCNC(=O)C1=CCCC3(C)OC3C3OC(=O)C(=C)C3CC1)=CCCC1(C)OC21` [JVM 3-82, (1aR,1a′R,4E,4′E,7aS,7a′S,10aS,10bS,10a′S,10b′S)—N,N′-(nonane-1,9-diyl)bis(1a-methyl-8-methylene-9-oxo-1a,2,3,6,7,7a,8,9,10a,10b-decahydrooxireno[2 ′,3 ′9,10]cyclodeca[1,2-b]furan-5-carboxamide)] was run?
Answer: more potency than parthenolide and MMB

Question: Which results are given for `C=C1C(=O)O[C@H]2[C@H]1CC/C(C(=O)NCCCCCCCCCCNC(=O)/C1=C/CC[C@@]3(C)O[C@H]3[C@H]3OC(=O)C(=C)[C@@H]3CC1)=C\CC[C@@]1(C)O[C@@H]21` [JVM 3-83, (1aR,1a′R,4E,4′E,7aS,7a′S,10aS, 10bS, 10a′S, 10b′S)—N,N′-(decane-1,10-diyl)bis(1a-methyl-8-methylene-9-oxo-1a,2,3,6,7,7a,8,9,10a,10b-decahydrooxireno[2′,3′:9,10]cyclodeca[1,2-b]furan-5-carboxamide)]?
Answer: potency relative to parthenolide and MMB (M9ENL AML cell lines [2]): more potency than parthenolide and MMB; EC50 (M9ENL AML cell lines [2]): 2800 nM; cytotoxicity relative to PTL (AML cell line AML 123009): enhanced cytotoxicity relative to PTL; EC50 (AML cell line AML 123009): 2800 nM

Question: How did the “potency relative to parthenolide and MMB” value (M9ENL AML cell lines [2]) turn out when `C=C1C(=O)OC2C1CCC(C(=O)NCCCCCCCNC(=O)C1=CCCC3(C)OC3C3OC(=O)C(=C)C3CC1)=CCCC1(C)OC21` [JVM 3-84, (1aR,1a′R,4E,4′E,7aS,7a′S,10aS,10bS,10a′S,10b′S)—N,N′-(heptane-1,7-diyl)bis(1a-methyl-8-methylene-9-oxo-1a,2,3,6,7,7a,8,9,10a,10b-decahydrooxireno[2′,3′:9,10]cyclodeca[1,2-b]furan-5-carboxamide)] was run?
Answer: more potency than parthenolide and MMB

Question: For `C=C1C(=O)OC2C1CCC(COC(=O)OCCCCOC(=O)OCC1=CCCC3(C)OC3C3OC(=O)C(=C)C3CC1)=CCCC1(C)OC21` [JVM 3-91A, butane-1,4-diylbis(((1aR,7aS,10aS,10bS,E)-1a-methyl-8-methylene-9-oxo-1a,2,3,6,7,7a, 8,9,10a,10b-decahydrooxireno[2′,3′:9,10]cyclodeca[1,2-b]furan-5-yl)methyl)dicarbonate], which EC50 (M9ENL AML cell lines [2]) is on record?
Answer: 930 nM

Question: And the “cytotoxicity relative to PTL” value (AML cell line AML 123009)?
Answer: enhanced cytotoxicity relative to PTL

Question: What about the EC50 (AML cell line AML 123009) of the same compound?
Answer: 930 nM

Question: What does the source list for `C=C1C(=O)O[C@H]2[C@H]1CC/C(COC(=O)CC(=O)OC/C1=C/CC[C@@]3(C)O[C@H]3[C@H]3OC(=O)C(=C)[C@@H]3CC1)=C\CC[C@@]1(C)O[C@@H]21` [JVM 3-99, bis(((1aR,7aS,10aS,10bS,E)-1a-methyl-8-methylene-9-oxo-1a,2,3,6,7,7a,8,9,10a, 1b-decahydrooxireno[2′,3′:9,10]cyclodeca[1,2-b]furan-5-yl)methyl)malonate]?
Answer: EC50 (M9ENL AML cell lines [2]): 1000 nM; cytotoxicity relative to PTL (AML cell line AML 123009): enhanced cytotoxicity relative to PTL; EC50 (AML cell line AML 123009): 1000 nM

Question: For `C=C1C(=O)O[C@H]2[C@H]1CC/C(Cn1cc(-c3cccc(-c4cn(C/C5=C/CC[C@@]6(C)O[C@H]6[C@H]6OC(=O)C(=C)[C@@H]6CC5)nn4)c3)nn1)=C\CC[C@@]1(C)O[C@@H]21` [JVM 4-41A], which EC50 (M9ENL AML cell lines [1]) is on record?
Answer: 2300 nM

Question: How did the EC50 (M9ENL AML cell lines [1]) turn out when `C=C1C(=O)O[C@H]2[C@H]1CC/C(Cn1cc(CNCc3cn(C/C4=C/CC[C@@]5(C)O[C@H]5[C@H]5OC(=O)C(=C)[C@@H]5CC4)nn3)nn1)=C\CC[C@@]1(C)O[C@@H]21` [JVM 4-44] was run?
Answer: 51600 nM

Question: For `C=C1C(=O)O[C@H]2[C@H]1CC/C(Cn1cc(CCCc3cn(C/C4=C/CC[C@@]5(C)O[C@H]5[C@H]5OC(=O)C(=C)[C@@H]5CC4)nn3)nn1)=C\CC[C@@]1(C)O[C@@H]21` [JVM 4-51], which EC50 (M9ENL AML cell lines [1]) is on record?
Answer: 4000 nM
